The values below come from US11090319B2, “Therapeutic uses of pharmaceutical compositions comprising cyclic boronic acid ester derivatives” (Melinta Subsidiary Corp., priority 2010, dated 2021).

Assay [1] concerns EC1016 Escherichia coli FOX-5. Description: Ceftazidime MIC with fixed concentration of BLI. The assay is classed as cell-based. To be noted: EC1016 FOX-5; for Ceftazidime MIC with cyclic boronic acid ester derivative: derivative at 10 μg/mL. As to the method: (§1) Next, ceftazidime potentiation activity of several cyclic boronic acid ester derivatives was tested using a larger panel of strains expressing β-lactamase hydrolyzing enzymes. Ceftazidime MICs were determined alone and in the presence of fixed concentrations of various cyclic boronic acid ester derivatives.

Assay [2] concerns KP1006 Klebsiella pneumoniae CTX-M2. Description: Ceftazidime MIC with fixed concentration of BLI. To be noted: for Ceftazidime MIC with cyclic boronic acid ester derivative: derivative at 10 μg/mL. The assay is classed as cell-based. On the procedure: as §1
In assay [3] the test system is ECL1003 Enterobacter cloacae Hyper AmpC expression. The experiment in a line: Ceftazidime MIC with fixed concentration of BLI. The assay is classed as cell-based. To be noted: for Ceftazidime MIC with cyclic boronic acid ester derivative: derivative at 10 μg/mL. On the procedure: as §1
Assay [4] relates to KP1014 Klebsiella pneumoniae Vim-1. Description: Ceftazidime MIC with fixed concentration of BLI. The assay is classed as cell-based. To be noted: KP1014 Vim-1; for Ceftazidime MIC with cyclic boronic acid ester derivative: derivative at 10 μg/mL. On the procedure:
as §1

The subject of assay [5] is SA1000 Salmonella CMY-2. The experiment in a line: Ceftazidime MIC with fixed concentration of BLI. The assay is classed as cell-based. To be noted: SA1000 CMY-2; for Ceftazidime MIC with cyclic boronic acid ester derivative: derivative at 10 μg/mL. On the procedure: as §1
The subject of assay [6] is CF1001 Citrobacter freundii Hyper AmpC expression. Description: Ceftazidime MIC with fixed concentration of BLI. The assay is classed as cell-based. To be noted: for Ceftazidime MIC with cyclic boronic acid ester derivative: derivative at 10 μg/mL. As to the method: as §1
The subject of assay [7] is KP1013 Klebsiella pneumoniae CMY-2. The experiment in a line: Ceftazidime MIC with fixed concentration of BLI. The assay is classed as cell-based. To be noted: KP1013 CMY-2; for Ceftazidime MIC with cyclic boronic acid ester derivative: derivative at 10 μg/mL. On the procedure:
as §1

Assay [8] concerns CF1000 Citrobacter freundii Hyper AmpC expression. The experiment in a line: Ceftazidime MIC with fixed concentration of BLI. The assay is classed as cell-based. The settings on record: for Ceftazidime MIC with cyclic boronic acid ester derivative: derivative at 10 μg/mL. On the procedure:
as §1

The test system of assay [9] is AB1052 Acinetobacter baumannii OXA-24. The experiment in a line: Ceftazidime MIC with fixed concentration of BLI. To be noted: AB1052 OXA-24; for Ceftazidime MIC with cyclic boronic acid ester derivative: derivative at 10 μg/mL. The assay is classed as cell-based. On the procedure: as §1
The subject of assay [10] is KP1012 Klebsiella pneumoniae SHV-18. Description: Ceftazidime MIC with fixed concentration of BLI. The assay is classed as cell-based. To be noted: KP1012 SHV-18; for Ceftazidime MIC with cyclic boronic acid ester derivative: derivative at 10 μg/mL. As to the method: as §1
Assay [11] deals with KP1011 Klebsiella pneumoniae SHV-5. Description: microbe, parasite or virus in culture. The assay is classed as cell-based. On the procedure: as §1
Assay [12] has as its target CTX-M-15, lysate of KP1009 (Escherichia coli, UniProt Q9EXV5). Description: Inhibition of ceftazidime hydrolysis by bacterial lysate.
The target of assay [13] is various β-lactamases (bacterial lysates) (Pseudomonas aeruginosa, UniProt P14489). The experiment in a line: biochemical. The assay is classed as biochemical. To be noted: AZT IC50 KP1007 OXA-10.
The target of assay [14] is various β-lactamases (bacterial lysates) (Salmonella typhimurium, UniProt P0A1V8). The experiment in a line: biochemical. The settings on record: AZT IC50 KPX1001 OXA-2. The assay is classed as biochemical.
Assay [15] addresses various β-lactamases (bacterial lysates) (Escherichia coli, UniProt A0A5R8T042). The experiment in a line: biochemical. The assay is classed as biochemical. The settings on record: read-out: AZT IC50 KP1009 CTX-M-15.
Assay [16] has as its target various β-lactamases (bacterial lysates) (Klebsiella pneumoniae, UniProt Q9F663, H272Y). The experiment in a line: biochemical. The assay is classed as biochemical.
The target of assay [17] is various β-lactamases (bacterial lysates) (Klebsiella pneumoniae, UniProt Q9F663). Description: biochemical. The assay is classed as biochemical. To be noted: aztreonam cleavage.
In assay [18] the target is GES-1, lysate of pa 1063 (Klebsiella pneumoniae, UniProt Q9KJY7). Description: Inhibition of ceftazidime hydrolysis by bacterial lysate.
Assay [19] concerns the target OXA-10, lysate of KP1007 (Pseudomonas aeruginosa, UniProt P14489). The assay is described as above.
Assay [20] addresses KPC-2, lysate of KP1008 (Klebsiella pneumoniae, UniProt Q9F663). The assay is described as above.
For assay [21], the target named is OXA-2, lysate of KX1000 (Salmonella typhimurium, UniProt P0A1V8). Described as above.
The target of assay [22] is DHA-1, lysate of EC1014 (Escherichia coli, UniProt Q84AE0). Described as above. The settings on record: read-out: IC50 of inhibition of Ceftazidime hydrolysis; EC1014 DHA-1.
For assay [23], the system named is AB1052 Acinetobacter baumannii OXA-24. The experiment in a line: Checkerboard assay, biapenem potentiation. To be noted: Biapenem MIC 8-fold; AB1052 OXA-24 class D.
The target in assay [24] is SHV-18, lysate of KP1012 (Klebsiella pneumoniae, UniProt P0AD64, E235K/G234A/R39S). The experiment in a line: Inhibition of ceftazidime hydrolysis by bacterial lysate.
The target in assay [25] is KPC-2, lysate of KP1004 (Klebsiella pneumoniae, UniProt Q9F663). Described as above.
Assay [26] has as its target SHV-2, lysate of ec306 (Escherichia coli, UniProt P0A9Z7). The description is as above.
For assay [27], the target named is CTX-M-14, lysate of KP1005 (Escherichia coli, UniProt Q9L5C7). The assay is described as above.
Assay [28] has as its target SHV-12, lysate of KP1010 (Klebsiella pneumoniae, UniProt P0AD64, E235K/G234S/L31Q). The description is as above.
For assay [29], the target named is SME-2, lysate of SM1000 (Serratia marcescens, UniProt P52682). The experiment in a line: Inhibition of biapenem hydrolysis by bacterial lysate. To be noted: read-out: IC50 of inhibition of biapenem hydrolysis; SM1000 SME-2.
The mark [30] stands for this setting: Klebsiella pneumoniae, read-out: Ceftazidime MIC Alone.
Setting [31] is: Citrobacter freundii, read-out: Ceftazidime MIC Alone.
[32] abbreviates: lysate KP1004 KPC-2, read-out: AZT IC50 KP1004 KPC-2 (converted).
[33] abbreviates: lysate KP1008 KPC-2, read-out: AZT IC50 KP1008 KPC-2.

Where two headings read alike, the source gives them in different places.

Sequence of CTX-M-15, lysate of KP1009 (Q9EXV5 entry or part of it): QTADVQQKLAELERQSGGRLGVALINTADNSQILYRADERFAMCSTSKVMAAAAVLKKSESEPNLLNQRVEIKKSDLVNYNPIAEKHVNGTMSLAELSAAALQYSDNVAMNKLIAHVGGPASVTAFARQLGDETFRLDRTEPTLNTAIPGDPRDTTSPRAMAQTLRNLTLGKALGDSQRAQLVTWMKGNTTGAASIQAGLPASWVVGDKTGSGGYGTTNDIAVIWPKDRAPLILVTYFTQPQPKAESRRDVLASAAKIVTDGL
Sequence of GES-1, lysate of pa 1063 (Q9KJY7 19-287): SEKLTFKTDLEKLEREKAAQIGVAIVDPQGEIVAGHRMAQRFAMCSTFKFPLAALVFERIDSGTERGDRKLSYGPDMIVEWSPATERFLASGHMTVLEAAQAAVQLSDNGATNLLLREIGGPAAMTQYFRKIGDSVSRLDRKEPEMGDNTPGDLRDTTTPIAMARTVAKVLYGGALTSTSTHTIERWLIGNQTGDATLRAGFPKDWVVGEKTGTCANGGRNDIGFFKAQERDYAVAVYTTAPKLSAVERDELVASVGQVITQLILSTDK
Sequence of various β-lactamases (bacterial lysates) (Klebsiella pneumoniae, UniProt Q9F663) (Q9F663 whole entry, looked up): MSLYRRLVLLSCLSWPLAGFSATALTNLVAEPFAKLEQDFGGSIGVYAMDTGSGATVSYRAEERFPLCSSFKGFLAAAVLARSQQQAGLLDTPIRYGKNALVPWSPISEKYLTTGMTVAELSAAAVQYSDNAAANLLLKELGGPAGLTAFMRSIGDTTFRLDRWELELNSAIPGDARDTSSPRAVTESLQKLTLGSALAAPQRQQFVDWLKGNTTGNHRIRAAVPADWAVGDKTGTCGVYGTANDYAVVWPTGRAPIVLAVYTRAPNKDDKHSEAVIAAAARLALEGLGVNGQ
Sequence of OXA-2, lysate of KX1000 (P0A1V8 22-275): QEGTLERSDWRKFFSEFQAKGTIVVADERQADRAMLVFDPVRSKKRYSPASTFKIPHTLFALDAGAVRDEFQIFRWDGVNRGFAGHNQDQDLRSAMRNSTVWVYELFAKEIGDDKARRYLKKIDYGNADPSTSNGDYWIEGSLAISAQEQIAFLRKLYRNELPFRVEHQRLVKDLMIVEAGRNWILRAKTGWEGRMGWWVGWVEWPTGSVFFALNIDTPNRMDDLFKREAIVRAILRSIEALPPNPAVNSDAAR
Sequence of CTX-M-14, lysate of KP1005 (Q9L5C7 entry or part of it): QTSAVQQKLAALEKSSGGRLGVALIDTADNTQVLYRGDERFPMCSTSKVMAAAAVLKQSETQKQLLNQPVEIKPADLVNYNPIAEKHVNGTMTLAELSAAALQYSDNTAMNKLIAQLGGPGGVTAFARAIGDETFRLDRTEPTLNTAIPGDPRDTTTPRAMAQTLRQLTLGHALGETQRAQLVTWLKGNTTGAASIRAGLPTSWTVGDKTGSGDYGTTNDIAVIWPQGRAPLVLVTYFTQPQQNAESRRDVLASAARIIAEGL
Sequence of SHV-2, lysate of ec306 (P0A9Z7 22-286): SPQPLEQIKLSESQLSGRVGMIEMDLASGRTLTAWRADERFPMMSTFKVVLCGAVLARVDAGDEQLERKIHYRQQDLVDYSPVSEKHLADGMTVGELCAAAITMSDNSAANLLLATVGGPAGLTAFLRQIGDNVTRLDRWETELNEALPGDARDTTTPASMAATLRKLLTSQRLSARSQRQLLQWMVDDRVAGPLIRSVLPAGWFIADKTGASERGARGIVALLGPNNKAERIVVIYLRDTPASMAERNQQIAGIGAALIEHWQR
Sequence of OXA-10, lysate of KP1007 (P14489 20-266): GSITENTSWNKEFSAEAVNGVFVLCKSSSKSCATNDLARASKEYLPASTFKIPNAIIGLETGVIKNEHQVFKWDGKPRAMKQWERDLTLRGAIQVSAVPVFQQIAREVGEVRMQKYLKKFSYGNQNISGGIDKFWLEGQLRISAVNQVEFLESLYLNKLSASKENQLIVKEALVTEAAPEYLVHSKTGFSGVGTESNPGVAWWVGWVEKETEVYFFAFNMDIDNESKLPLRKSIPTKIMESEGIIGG
Sequence of SHV-18, lysate of KP1012 (P0AD64 22-286 R39S/G234A/E235K): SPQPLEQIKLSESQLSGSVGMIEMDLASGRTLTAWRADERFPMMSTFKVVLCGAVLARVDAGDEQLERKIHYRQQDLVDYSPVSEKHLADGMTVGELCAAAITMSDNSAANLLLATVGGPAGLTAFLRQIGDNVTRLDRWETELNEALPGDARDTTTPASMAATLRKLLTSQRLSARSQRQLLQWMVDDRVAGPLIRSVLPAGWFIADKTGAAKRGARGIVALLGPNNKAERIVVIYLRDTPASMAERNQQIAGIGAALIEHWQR
Sequence of SHV-12, lysate of KP1010 (P0AD64 22-286 L31Q/G234S/E235K): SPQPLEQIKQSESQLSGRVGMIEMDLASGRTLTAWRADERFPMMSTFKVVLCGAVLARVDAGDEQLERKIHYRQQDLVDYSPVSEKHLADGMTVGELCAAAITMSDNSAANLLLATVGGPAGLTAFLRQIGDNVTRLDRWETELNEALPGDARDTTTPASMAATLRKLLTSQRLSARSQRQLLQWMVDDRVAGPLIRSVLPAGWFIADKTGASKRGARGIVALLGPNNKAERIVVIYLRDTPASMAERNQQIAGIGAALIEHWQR
Sequence of various β-lactamases (bacterial lysates) (Escherichia coli, UniProt A0A5R8T042) (A0A5R8T042 29-291): as the sequence (Q9EXV5 entry or part of it) above
Sequence of various β-lactamases (bacterial lysates) (Salmonella typhimurium, UniProt P0A1V8) (P0A1V8 22-275): as the sequence (P0A1V8 22-275) above
Sequence of various β-lactamases (bacterial lysates) (Pseudomonas aeruginosa, UniProt P14489) (P14489 20-266): as the sequence (P14489 20-266) above
Sequence of KPC-2, lysate of KP1004 (Q9F663 25-293 limits assumed): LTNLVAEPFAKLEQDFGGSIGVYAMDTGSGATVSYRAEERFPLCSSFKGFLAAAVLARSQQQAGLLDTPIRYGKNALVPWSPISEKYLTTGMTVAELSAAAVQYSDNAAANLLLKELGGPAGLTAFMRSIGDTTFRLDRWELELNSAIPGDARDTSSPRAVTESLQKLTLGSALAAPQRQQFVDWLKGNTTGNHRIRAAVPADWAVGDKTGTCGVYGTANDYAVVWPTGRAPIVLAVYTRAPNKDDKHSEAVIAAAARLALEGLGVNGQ
Sequence of KPC-2, lysate of KP1008 (Q9F663 25-293 limits assumed): as above
Sequence of various β-lactamases (bacterial lysates) (Klebsiella pneumoniae, UniProt Q9F663, H272Y) (Q9F663 whole entry H272Y, looked up): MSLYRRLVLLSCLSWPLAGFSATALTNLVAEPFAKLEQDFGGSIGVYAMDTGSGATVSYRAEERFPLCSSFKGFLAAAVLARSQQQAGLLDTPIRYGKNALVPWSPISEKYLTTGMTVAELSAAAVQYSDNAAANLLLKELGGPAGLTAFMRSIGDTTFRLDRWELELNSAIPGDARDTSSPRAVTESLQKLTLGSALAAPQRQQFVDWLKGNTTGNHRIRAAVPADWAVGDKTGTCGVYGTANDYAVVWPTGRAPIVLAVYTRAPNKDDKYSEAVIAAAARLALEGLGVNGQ
Sequence of SME-2, lysate of SM1000 (P52682 28-294 limits assumed): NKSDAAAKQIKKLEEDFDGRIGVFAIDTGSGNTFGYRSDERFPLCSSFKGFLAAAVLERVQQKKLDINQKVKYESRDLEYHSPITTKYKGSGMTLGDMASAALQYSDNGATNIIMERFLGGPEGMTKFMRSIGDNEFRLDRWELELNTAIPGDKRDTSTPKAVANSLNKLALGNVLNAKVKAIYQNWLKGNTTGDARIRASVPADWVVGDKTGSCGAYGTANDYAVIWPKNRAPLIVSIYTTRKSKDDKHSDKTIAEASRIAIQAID

On to `CC(C)(O/N=C(\C(=O)N[C@@H]1C(=O)N2C(C(=O)[O-])=C(C[n+]3ccccc3)CS[C@H]12)c1csc(N)n1)C(=O)O` [Ceftazidime, reference compound], for which the MIC in [1] (Escherichia coli, read-out: Ceftazidime MIC Alone) was above 8 µg/mL; in assay [2] (setting [30]), 1 to 8 µg/mL; in assay [3] (Enterobacter cloacae, read-out: Ceftazidime MIC Alone) it was above 8 µg/mL; in [4] (setting [30]) it was above 8 µg/mL; in assay [5] (Salmonella, read-out: Ceftazidime MIC Alone) it was above 8 µg/mL; in assay [6] (setting [31]), above 8 µg/mL. The MIC in assay [7] (setting [30]) was above 8 µg/mL; in assay [8] (setting [31]), above 8 µg/mL; in [9] (Acinetobacter baumannii, read-out: Ceftazidime MIC Alone) it was above 8 µg/mL; in assay [10] (setting [30]) it was above 8 µg/mL; in [11] (setting [30]), 1 to 8 µg/mL.

A word on the IC50: it is the concentration that gives 50% inhibition. For `CC(=O)N[C@H]1CCC(CC(=O)O)OB1O` (stereo partly drawn) [Compound 3, 2-((3R)-3-acetamido-2-hydroxy-1,2-oxaborinan-6-yl)acetic acid], the half-inhibitory concentration (IC50) in assay [12] is above 4.65 µM; in assay [13], above 9.3 µM; in [14] it was above 9.3 µM; in assay [15] it was above 9.3 µM; in assay [16], below 2.33 µM; in [17] (setting [32]) it was below 2.33 µM. In addition, the half-inhibitory concentration (IC50) is 2.33 to 9.3 µM in [17] (setting [33]); above 4.65 µM in [18]; above 4.65 µM in assay [19]; 0.465 to 4.65 µM in [20]; above 4.65 µM in assay [21]; above 4.65 µM in assay [22]. For the same compound, the IC50 in assay [24] was above 4.65 µM; in [25], below 0.465 µM; in assay [26], above 4.65 µM; in assay [27], above 4.65 µM; in assay [28], above 4.65 µM. Besides, the “Ceftazidime MIC with cyclic boronic acid ester derivative” value (“Ceftazidime MIC” for short) is reported as “Z (MIC of greater than 8 μg/mL)” in [1]; “X (MIC of 1 μg/mL or less)” in assay [2]; “Z (MIC of greater than 8 μg/mL)” in [3]; “Z (MIC of greater than 8 μg/mL)” in [4]; “Z (MIC of greater than 8 μg/mL)” in [5]; “Z (MIC of greater than 8 μg/mL)” in [6]. In addition, the “Ceftazidime MIC” value in [7] is “Z (MIC of greater than 8 μg/mL)”; in assay [8] it was “Z (MIC of greater than 8 μg/mL)”; in assay [9] it was “Z (MIC of greater than 8 μg/mL)”; in assay [10], “Z (MIC of greater than 8 μg/mL)”; in assay [11] (derivative at 10 μg/mL, KP1011 SHV-5), “X (MIC of 1 μg/mL or less)”. The MPC8 entry in [23] is listed as “Z (MPC8 of greater than 1 μg/mL)”.

As to `O=C(O)C[C@@H]1CC[C@H](NC(=O)Cc2cccs2)B(O)O1` [Compound 5, 2-((3R,6S)-2-hydroxy-3-(2-(thiophen-2-yl)acetamido)-1,2-oxaborinan-6-yl)acetic acid], the 50% inhibitory concentration (IC50) was below 0.337 µM in assay [12]; above 6.73 µM in assay [13]; below 1.68 µM in assay [14]; 1.68 to 6.73 µM in assay [15]; below 1.68 µM in assay [16]; below 1.68 µM in [17] (setting [32]). The half-inhibitory concentration (IC50) in [17] (setting [33]) is below 1.68 µM; in assay [18], below 0.337 µM; in assay [19] it was 0.337 to 3.37 µM; in [21], below 0.337 µM; in assay [22], 0.337 to 3.37 µM; in assay [29] it was below 0.337 µM. The IC50 in [24] was 0.337 to 3.37 µM; in assay [26] it was 0.337 to 3.37 µM; in [27], below 0.337 µM; in assay [28] it was 0.337 to 3.37 µM. Also, the “Ceftazidime MIC” value is “Z (MIC of greater than 8 μg/mL)” in [1]; “X (MIC of 1 μg/mL or less)” in assay [2]; “Z (MIC of greater than 8 μg/mL)” in assay [3]; “Z (MIC of greater than 8 μg/mL)” in [4]; “Y (MIC of greater than 1 μg/mL to 8 μg/mL)” in assay [5]; “Y (MIC of greater than 1 μg/mL to 8 μg/mL)” in assay [6]. Also, the “Ceftazidime MIC” value is given as “Y (MIC of greater than 1 μg/mL to 8 μg/mL)” in assay [7], “Y (MIC of greater than 1 μg/mL to 8 μg/mL)” in [8], “Z (MIC of greater than 8 μg/mL)” in assay [9] and “Y (MIC of greater than 1 μg/mL to 8 μg/mL)” in assay [10]. Further, the MPC8 entry in assay [23] was “Z (MPC8 of greater than 1 μg/mL)”.

`Cl.N[C@H]1CCC(CC(=O)O)OB1O` (stereo partly drawn) [Compound 7, 2-((3R)-3-amino-2-hydroxy-1,2-oxaborinan-6-yl)acetic acid hydrochloride]: the IC50 in assay [12] is 0.477 to 4.77 µM; in assay [18], 0.477 to 4.77 µM; in [19], above 4.77 µM; in [20] it was above 4.77 µM; in assay [21] it was above 4.77 µM; in [22], above 4.77 µM. In addition, the half-inhibitory concentration (IC50) in [24], in [25], in assay [26], in [27] and in [28] was above 4.77 µM in each case. For the same compound, the “Ceftazidime MIC” value in [8] and in assay [10] was “Z (MIC of greater than 8 μg/mL)” in each case.
